Here are results for six molecules from US7312360B2, “Substituted hydroxyethylamines” (Elan Pharmaceuticals, Inc., priority 2001, dated 2007).

As usually defined, the melting point is the temperature, or range, at which the solid turns liquid. The molecule `CCCCOc1cccc(C[C@H](N)[C@H](O)CNCc2cccc(CC)c2)c1.Cl.Cl` yielded a melting point of 197 to 199 °C.

`CCCCCCOc1cccc(C[C@H](NC(=O)c2coc(NS(C)(=O)=O)n2)[C@H](O)CNCc2cccc(CC)c2)c1` [Example 45, N-{(1S,2R)-3-[(3-ethylbenzyl)amino]-1-[3-(hexyloxy)benzyl]-2-hydroxypropyl}-2-[(methylsulfonyl)amino]-1,3-oxazole-4-carboxamide]: the melting point is 85 to 90 °C.

On to `CCCCOc1cccc(C[C@H](NC(=O)c2coc(NS(C)(=O)=O)n2)[C@H](O)CNCc2cccc(CC)c2)c1` [Example 50a, N-{(1S,2R)-1-(3-butoxybenzyl)-3-[(3-ethylbenzyl)amino]-2-hydroxypropyl}-2-[(methylsulfonyl)amino]-1,3-oxazole-4-carboxamide], for which the melting point was 78 to 80 °C.

As for `CCCCOc1cccc(C[C@H](NC(C)=O)[C@H](O)CNCc2cccc(CC)c2)c1` [Example 50b, N-{(1S,2R)-1-(3-butoxybenzyl)-3-[(3-ethylbenzyl)amino]-2-hydroxypropyl}acetamide], the melting point was in the range of 112 to 114 °C.

Molecule `CCCCCCOc1cccc(C[C@H](NC(=O)c2cccc(-c3ncco3)c2)[C@H](O)CNCc2cccc(CC)c2)c1` [Example 93A, N-{(1S,2R)-3-[(3-ethylbenzyl)amino]-1-[3-(hexyloxy)benzyl]-2-hydroxypropyl}-3-(1,3-oxazol-2-yl)benzamide] registered a melting point of 117 to 120 °C.

As to `CCCCCCOc1cccc(C[C@H](NC(C)=O)[C@H](O)CNCc2cccc(CC)c2)c1` [Example 93B, N-{(1S,2R)-3-[(3-ethylbenzyl)amino]-1-[3-(hexyloxy)benzyl]-2-hydroxypropyl}acetamide], the melting point fell in the range of 102 to 105 °C.
